The results in this text go back to patent publication US20190046478A1, “BIOLOGICAL MARKER FOR IDENTIFYING CANCER PATIENTS FOR TREATMENT WITH A BIGUANIDE” (THE ROYAL INSTITUTION FOR THE ADVANCEMENT OF …, priority 2017, published 2019).

Where two headings read alike, the source gives them in different places.

One assay deals with Eμ-Myc lymphoma cells. Conditions: for Protection of viability of +17˜92 cells by pyruvate supplementation, lower doses / Protection of viability of +17˜92 cells by pyruvate supplementation, higher concentrations: 1 mM pyruvate, FIG. 5D, 10C; for Protection of viability of +17˜92 cells by pyruvate supplementation, lower doses: 10 μM Compound 1 or 30 μM phenformin; for Protection of viability of +17˜92 cells by pyruvate supplementation, higher concentrations: 100 μM Compound 1 or 300 μM phenformin. How it is done: (§1) Eμ-Myc cells were cultured on a layer of irradiated Ink4a-null MEF feeder cells in DMEM and IMDM medium (50:50 mix) supplemented with 10% fetal bovine serum (FBS), 20000 U/mL penicillin, 7 mM streptomycin, 2 mM glutamine, and β-mercaptoethanol. Raji cells were cultured in RPMI medium supplemented with 10% FBS, 20000 U/mL penicillin, 7 mM streptomycin, and 2 mM glutamine. Cells were grown at 37° C. in a humidified atmosphere supplemented with 5% (v/v) CO2.
(§2) Cells were seeded at a density of 1×10^5 cells/mL in 3.5 cm dishes, and cell counts determined via trypan blue exclusion using a TC20 Automated Cell Counter (Biorad). For viability measurements, cells were stained with Fixable Viability Dye eFluor 780 (eBioscience), and analyzed using a Gallios flow cytometer (Beckman Coulter, Fullerton, Calif.) and FlowJo software (Tree Star, Ashland, Oreg.).

Assay [1] relates to Eμ-Myc cells. As to the kind of experiment: Mitochondrial ROS by MitoSox staining and flow cytometry. In kind it is cell-based, mouse. To be noted: 2 hours, 100 μM phenformin or 10 μM Compound 1, FIG. 5A. The text has this: Statistics for all figures are as follows: *, p<0.05; **, p<0.01; ***, p<0.001.
On the technique in general: In flow cytometry, cells or beads pass a laser one at a time.

Assay [2] concerns Eμ-Myc cells. Kind of assay: GC-MS analysis of metabolite abundance and 13C-glutamine labelling. It is filed as cell-based, mouse. To be noted: for 13C-glutamine incorporation into glutamate and α-ketoglutarate, +17˜92 versus treated control cells: 100 μM phenformin or 10 μM Compound 1, FIG. 4B; for Aspartate abundance: +17˜92 and control cells, 2 hours, 100 μM phenformin or 10 μM Compound 1, FIG. 4A. On the procedure:
Cellular metabolites were extracted and analyzed by GC-MS. […] Cells were washed twice with saline, then lysed in ice-cold 80% methanol and sonicated. For GC-MS analysis, D-myristic acid (750 ng/sample) was added to metabolite extracts as an internal standard prior to drying samples under a N2 stream. […] The oven program for all metabolite analyses started at 60° C. held for 1 min, then increasing at a rate of 10° C./min until 320° C. Bake-out was at 320° C. for 10 min. […] Mass isotopomer distribution for TCA cycle intermediates was determined using a custom algorithm developed at McGill University. After correction for natural ^13C abundances, a comparison was made between non-labeled (^12C) and ^13C-labeled abundances for each metabolite. Metabolite abundance was expressed relative to the internal standard (D-myristic acid) and normalized to cell number.

A further assay has as its system AMPK. Kind of assay: Immunoblot for pAMPK (T172) and total AMPK. In kind it is cell-based, mouse. Conditions: two hours, 100 μM phenformin or 10 μM Compound 1, FIG. 3C. An excerpt: Lymphoma cell lines were subjected to SDS-PAGE and immunoblotting using CHAPS and AMPK lysis buffers. Primary antibodies against β-actin, 4EBP (total, phospho-T36/47, and phospho-S65), rS6 (total and p S235/236), Raptor (total and pS792), and AMPKα (total and phospho-T172) were obtained from Cell Signaling Technology (Danvers, Mass.). Primary antibody against LKB1 (Ley 37D/G6) was obtained from Santa Cruz Biotechnology (Dallas, Tex., USA). For qPCR quantification of mature miRNAs, Qiazol was used isolate RNA, miRNEasy Mini kit was used to purify miRNAs and total mRNA, and cDNA synthesized using the miScript II RT kit (Qiagen). Quantitative PCR was performed using the SensiFAST SYBR Hi-ROX kit (Bioline) and an AriaMX Real-Time PCR system (Agilent Technologies). miScript primer assays (Qiagen) were used to detect mature miRNAs of the miR-17˜92 cluster, with miRNA expression normalized relative to U6 RNA levels.
Background: A western blot detects proteins with antibodies after separation by electrophoresis.

Assay [3] has as its system Eμ-Myc cells. Kind of assay: Seahorse XF96 respirometry (OCR and ECAR). In kind it is cell-based, mouse. To be noted: for Oxygen consumption of +17˜92 cells / Oxygen consumption of control cells: 100 μM phenformin or 10 μM Compound 1, after roughly four hours; for Oxygen consumption rate (OCR) / Extracellular acidification rate (ECAR): acute treatment, across a range of doses; for Oxygen consumption rate (OCR): FIG. 2A, 8A; for Extracellular acidification rate (ECAR): FIG. 2B, 8B; for IC50: after two hours treatment, read-out: Dose that produced a roughly 50% decrease in OCR from baseline. On the procedure:
7.5×10^4 lymphoma cells were plated per well of an XF96 Seahorse plate in 140 μL of unbuffered DMEM containing 25 mM glucose and 2 mM glutamine, followed by centrifugation at 500×g for five minutes. Seahorse plates were pre-coated with poly-D-lysine (Sigma-Aldrich) to enhance cell adherence. XF assays consisted of sequential mix (3 min), pause (3 min), and measurement (5 min) cycles, allowing for determination of OCR and ECAR every […]. […] For media metabolite determination, cells were seeded at 1×10^5 cells/mL in 3.5 cm plates, and cultured for two days prior to harvesting medium. Culture medium was analyzed for extracellular metabolites (glucose and lactate) using a BioProfile Analyzer (NOVA Biomedical) and normalized to cell number.

In the next assay the test system is Raji cells. As to the kind of experiment: Cell viability assay in Raji lymphoma cells. It is filed as cell-based, human. To be noted: 48 hours, FIG. 3B. On the procedure: as §1, §2
The subject of assay [4] is Eμ-Myc cells. Kind of assay: LC-MS analysis of GSH/GSSG, NADP+/NADPH and NAD+/NADH ratios. In kind it is cell-based, mouse. Conditions: 2 hours. How it is done: Aqueous supernatants were dried by vacuum centrifugation with sample temperature maintained at −4° C. (Labconco, Kansas City Mo., USA). Pellets were subsequently resuspended in 25 μL of H2O as the injection buffer. Chromatographic separation was performed on a Scherzo SM-C18 column 3 μm, 3.0×150 mm (Imtakt Corp, JAPAN). The chromatographic gradient started at 100% mobile phase A (0.2% formic acid in water) with a 2 min hold followed with a 6 min gradient to 80% B (0.2% formic acid in MeOH) at a flow rate of 0.4 mL/min. This was followed by a 5 min hold time at 100% mobile phase B and a subsequent re-equilibration time (6 min) before next injection. […] Analyte ionization was accomplished using ESI in positive ionization mode. […] MS data were acquired in full scan mode mass range: m/z 100-1000; scan time: 1.4 s; data collection: centroid and profile modes. […] For all LC/MS analyses, 1 μL of sample was injected. The column temperature was maintained at 10° C. Data were quantified by integrating the area under the curve of each compound using MassHunter Quant (Agilent Technologies, Santa Clara, Calif., USA). Each metabolite's accurate mass ion was extracted (EIC) using a 10 ppm window. Relative concentrations were determined from external calibration curves.

Assay [5] deals with Eμ-Myc lymphoma cells (control or +17˜92). Kind of assay: Tumor xenograft assay, survival of nude mice injected with lymphoma cells. In kind it is in vivo, CD-1 nude mice. To be noted: drinking water ad lib, 0.9 mg/mL phenformin or 0.8 mg/mL Compound 1, FIG. 6B. On the procedure:
Lymphoma cells were resuspended in HBSS at a concentration of 5×10^6 cells/mL, and 10^6 cells/200 μL were injected intravenously into CD-1 nude mice (Charles River).

[6] abbreviates: 100 μM phenformin or 10 μM Compound 1, FIG. 5C.

In the case of `N=C(NC(=N)N1CCCC1)Nc1cccc(OC(F)(F)F)c1` [Compound 1, N1-pyrrolidine-N5-(3-trifluoromethoxy)phenyl biguanide], in the assay on Eμ-Myc lymphoma cells (48 hours), the “Protection of viability of +17˜92 cells by pyruvate supplementation, lower doses” value is recorded as “some protective benefit” and the “Protection of viability of +17˜92 cells by pyruvate supplementation, higher concentrations” value was “not apparent”. Moreover, in the assay with Eμ-Myc lymphoma cells (48 hours, FIG. 3A), the “Viability of +17˜92 cells at doses not toxic in control cells” value is on record as “viability of +17˜92 cells was affected”. Also, in the assay with Eμ-Myc cells [1], the “Mitochondrial ROS in +17˜92 cells” value is “significantly increased mitochondrial ROS” and the “Mitochondrial ROS levels in control cells” value is “neither phenformin nor Compound 1 treatment were sufficient to increase”. For the same compound, in the assay with Eμ-Myc cells [2], the “13C-glutamine incorporation into glutamate and α-ketoglutarate, +17˜92 versus treated control cells” value is “more significant reduction”; the Aspartate abundance entry is given as “reduced aspartate abundance”. Also, the “AMPK phosphorylation in +17˜92 cells” value in the assay with AMPK is given as “largely unaffected”. In the assay with Eμ-Myc cells [3], the “Oxygen consumption of +17˜92 cells” value is reported as “never eliminated”, the “Oxygen consumption of control cells” value is “effectively non-respiring”, the “Oxygen consumption rate (OCR)” value is recorded as “decreased” and the “Extracellular acidification rate (ECAR)” value is “commensurate increases”. Besides, in the assay on Eμ-Myc cells [3], the IC50 was found to be 10 µM. The “Speed of OCR reduction versus equivalent doses of phenformin” value with Eμ-Myc cells [3] (higher doses, 5 min post-injection, FIG. 2C) is “more rapid reductions in OCR”. Besides, the “Extent of OCR reduction versus equivalent doses of phenformin” value in the assay on Eμ-Myc cells [3] (lower doses, longer time periods (260 min), FIG. 2D) is “more profound reductions in OCR”. Further, the “Viability of Raji cells with or without miR-17˜92 overexpression over a range of doses” value in the assay with Raji cells is “followed a similar trend, albeit at higher doses”. Further, in the assay with Eμ-Myc cells [4] (100 μM phenformin or 10 μM Compound 1, FIG. 5B), the GSH/GSSG ratio entry is on record as “no significant changes”. Further, in the assay on Eμ-Myc cells [4] (setting [6]), the “NADP+/NADPH ratio in +17˜92 cells” value was “increase their NADP+/NADPH ratio” and the “NADP+/NADPH ratio in control cells” value is “not control cells”. The “Lifespan of mice bearing +17˜92 cells” value in assay [5] is recorded as “significantly prolonged the lifespan”.

Take `[H]/N=C(/N)N/C(=N/[H])NCCc1ccccc1` [phenformin, reference compound]: the “Viability of Δ/Δ (miR-17˜92 deleted) versus fl/fl cells” value with Eμ-Myc lymphoma cells (48 hour treatment, FIG. 1A) was “more resistant”. Also, in the assay on Eμ-Myc lymphoma cells (48 hours), the “Protection of viability of +17˜92 cells by pyruvate supplementation, lower doses” value is “some protective benefit” and the “Protection of viability of +17˜92 cells by pyruvate supplementation, higher concentrations” value is recorded as “not apparent”. Besides, the “Sensitivity (viability) of +17˜92 versus control Eμ-Myc lymphoma cells” value with Eμ-Myc lymphoma cells (48 hours, FIG. 1C) was “significantly more sensitive than controls”. In the assay with Eμ-Myc cells [1], the “Mitochondrial ROS in +17˜92 cells” value is given as “approached significance” and the “Mitochondrial ROS levels in control cells” value was “neither phenformin nor Compound 1 treatment were sufficient to increase”. For the same compound, in the assay on Eμ-Myc cells [2], the “13C-glutamine incorporation into glutamate and α-ketoglutarate, +17˜92 versus treated control cells” value is “not”; the Aspartate abundance entry is “reduced aspartate abundance”. In the assay with AMPK, the “AMPK phosphorylation in +17˜92 cells” value was “reduced AMPK phosphorylation than control cells”. In addition, in the assay on Eμ-Myc cells [3], the “Oxygen consumption of +17˜92 cells” value was “never eliminated”, the “Oxygen consumption of control cells” value is “effectively non-respiring”, the “Oxygen consumption rate (OCR)” value is reported as “decreased” and the “Extracellular acidification rate (ECAR)” value is “commensurate increases”. Moreover, the IC50 in the assay on Eμ-Myc cells [3] (Mus musculus, 2 h) worked out at 100 µM. In the assay with Raji cells, the “Viability of Raji cells with or without miR-17˜92 overexpression over a range of doses” value is recorded as “followed a similar trend, albeit at higher doses”. Further, in assay [5], the “Lifespan of mice bearing +17˜92 cells” value is “significantly prolonged the lifespan”.
